Measured values reported in patent publication US20210046071A1, “TETRACYCLIC COMPOUNDS AND THEIR SALTS, COMPOSITIONS, AND METHODS FOR THEIR USE” (Senhwa Biosciences, Inc., priority 2019, published 2021).
Read-outs that look alike come from different tables or passages of the source.

Assay: Pharmacokinetic studies in human, Compound I in plasma by LC/MS/MS
Assay type: in vivo
Conditions: for Cmax / Tmax / AUC(0-inf) / half-life / Vd / clearance: human, plasma
Protocol: Pharmacokinetic studies and dose escalation studies were conducted in adult patients with metastatic, recurrent, locally, advanced, or unresectable solid malignancy (patients with histologically and/or cytologically confirmed solid malignancy), who received prior anti-cancer treatment(s) until disease progression, at 10 different dose levels of Compound I. Groups 1-7 were administered intravenously on days 1 and 8 of a 4-week cycle at 50, 100, 150, 200, 250, 325, and 475 mg/m^2 (lyophilized formulation), respectively. Groups 8-10 were administered intravenously on days 1,8, and 15 of a 4-week cycle at 325, 475, and 650 mg/m^2 (lyophilized formulation), respectively. Each patient received each dose over 1 hour by IV infusion on days described above.
They lyophilized formulation was reconstituted with 5% glucose in sterile water, or similar biologically acceptable fluid, for IV infusion.
For patients in Groups 1-7, blood samples were typically collected at Day 1 at pre-infusion (t=−1 h), during infusion at about 30 minutes (t=−0.5 h), immediately post infusion (t=0 h), 30 min post-infusion, 1 h post-infusion, 2 h post-infusion, 4 h post-infusion, and 6 h post-infusion, as well as at about 24 h post-infusion, 48 h post-infusion, and 72 h post-infusion. On Day 8, blood samples were typically collected at pre-infusion (t=−1 h), during infusion at about 30 minutes (t=−0.5 h), immediately post infusion (t=0 h), 30 min post-infusion, 1 h post-infusion, 2 h post-infusion, 4 h post-infusion, and 6 h post-infusion, as well as at about 24 h post-infusion, and 168 h post-infusion (Day 15).
For patients in Groups 8-10, blood samples were typically collected at Day 1 at pre-infusion (t=−1 h), during infusion at about 30 minutes (t=−0.5 h), immediately post infusion (t=0 h), 30 min post-infusion, 1 h post-infusion, 2 h post-infusion, 4 h post-infusion, and 6 h post-infusion, as well as at about 24 h post-infusion, 48 h post-infusion, and 72 h post-infusion. On Day 8, blood samples were typically collected at pre-infusion (t=−1 h). On Day 15, blood samples were typically collected at pre-infusion (t=−1 h), during infusion at about 30 minutes (t=−0.5 h), immediately post infusion (t=0 h), 30 min post-infusion, 1 h post-infusion, 2 h post-infusion, 4 h post-infusion, and 6 h post-infusion, as well as at about 24 h post-infusion, and 168 h post-infusion (Day 22).
Levels of Compound I in patient's plasma were analyzed by liquid chromatography tandem mass spectrometry (LC/MS/MS) assay. Experimental procedures of the validated methods are summarized below. The pharmacokinetic parameters after first dose and second dose for Groups 1-7 and after first dose and third dose for Groups 8-10 are shown in Tables 2A-2J. In Tables 2A-2J: SD=standard deviation; Cmax=maximum observed concentration; D=dose; Tmax=time to maximum observed concentration; T1/2=elimination half-life; Vd=volume of distribution; CL=drug clearance; and AUC∞=area under the concentration-time curve from time zero to infinity (total exposure).
The concentrations of Compound I in human plasma samples collected from subjects of as discussed above. Compound I concentrations in plasma samples were measured based on 9 levels of calibration standards from 5.00 to 5000 ng/mL, and 3 levels of QC at 15.0 ng/mL (low), 2500 ng/mL (mid), and 4000 ng/mL (high).
Two reference standard master stock solutions of Compound I were prepared by dissolving the Compound 1 reference standard with 50:50:0.1 ACN:diH2O:FA (v/v/v) and sonicating for 7 minutes (diH2O=deionized water). The resulting solutions were further diluted with 50:50:0.1 ACN:diH2O:FA (v/v/v) into a series of working stock solutions (WSS) for spiking of Compound I calibration standards and QC samples. The master stock solutions were prepared fresh on the day of assay, or stored at nominal 2° C. to 8° C. for later use. Master stock solutions were used within the stability timeframe. […]

[1] = Group 1, 50 mg/m^2 IV, Day 1, mean, n = 4
[2] = Group 1, 50 mg/m^2 IV, Day 8, mean, n = 3
[3] = Group 2, 100 mg/m^2 IV, Day 8, mean, n = 3
[4] = Group 3, 150 mg/m^2 IV, Day 1, mean, n = 4
[5] = Group 3, 150 mg/m^2 IV, Day 8, mean, n = 4
[6] = Group 4, 200 mg/m^2 IV, Day 1, mean, n = 4
[7] = Group 4, 200 mg/m^2 IV, Day 8, mean, n = 4
[8] = Group 5, 250 mg/m^2 IV, Day 1, mean, n = 3
[9] = Group 5, 250 mg/m^2 IV, Day 8, mean, n = 3
[10] = Group 6, 325 mg/m^2 IV, Day 1, mean, n = 3
[11] = Group 6, 325 mg/m^2 IV, Day 8, mean, n = 3
[12] = Group 7, 475 mg/m^2 IV, Day 1, mean, n = 3
[13] = Group 7, 475 mg/m^2 IV, Day 8, mean, n = 3
[14] = Group 9, 475 mg/m^2 IV, Day 1, mean, n = 5
[15] = Group 10, 650 mg/m^2 IV, Day 1, mean, n = 5
[16] = Group 10, 650 mg/m^2 IV, Day 15, mean, n = 5
[17] = intravenous, Groups 8-10, Day 1, range of group means
[18] = iv, 50 mg/m2, Group 1, 50 mg/m^2 IV, Day 1, mean, n = 4
[19] = iv, 50 mg/m2, Group 1, 50 mg/m^2 IV, Day 8, mean, n = 3
[20] = iv, 100 mg/m2, Group 2, 100 mg/m^2 IV, Day 1, mean, n = 4
[21] = iv, 100 mg/m2, Group 2, 100 mg/m^2 IV, Day 8, mean, n = 3
[22] = iv, 150 mg/m2, Group 3, 150 mg/m^2 IV, Day 1, mean, n = 4

Cc1cnc(CNC(=O)c2c(=O)c3ccc(N4CCCN(C)CC4)nc3n3c2sc2ccccc23)cn1 [Compound I, 2-(4-Methyl-[1,4]diazepan-1-yl)-5-oxo-5H-7-thia-1,11b-diaza-benzo[c]fluorene-6-carboxylic acid (5-methyl-pyrazin-2-ylmethyl)-amide]
AUC∞/D [1]: 170 ng·h/mL/mg | Cmax/D [1]: 8.14 ng/mL/mg | AUC∞/D [2]: 94.9 ng·h/mL/mg | Cmax/D [2]: 7.23 ng/mL/mg | AUC∞/D (Group 2, 100 mg/m^2 IV, Day 1, mean, n = 3): 38.3 ng·h/mL/mg | Cmax/D (Group 2, 100 mg/m^2 IV, Day 1, mean, n = 4): 5.94 ng/mL/mg | AUC∞/D [3]: 47.4 ng·h/mL/mg | Cmax/D [3]: 3.97 ng/mL/mg | AUC∞/D [4]: 84.5 ng·h/mL/mg | Cmax/D [4]: 5.43 ng/mL/mg | AUC∞/D [5]: 91.1 ng·h/mL/mg | Cmax/D [5]: 5.49 ng/mL/mg | AUC∞/D [6]: 42.7 ng·h/mL/mg | Cmax/D [6]: 26.9 ng/mL/mg | AUC∞/D [7]: 44.5 ng·h/mL/mg | Cmax/D [7]: 3.27 ng/mL/mg | AUC∞/D [8]: 48.0 ng·h/mL/mg | Cmax/D [8]: 3.15 ng/mL/mg | AUC∞/D [9]: 64.6 ng·h/mL/mg | Cmax/D [9]: 1.87 ng/mL/mg | AUC∞/D [10]: 46.9 ng·h/mL/mg | Cmax/D [10]: 2.14 ng/mL/mg | AUC∞/D [11]: 57.8 ng·h/mL/mg | Cmax/D [11]: 2.09 ng/mL/mg | AUC∞/D [12]: 44.0 ng·h/mL/mg | Cmax/D [12]: 2.48 ng/mL/mg | AUC∞/D [13]: 44.1 ng·h/mL/mg | Cmax/D [13]: 2.15 ng/mL/mg | AUC∞/D (Group 8, 325 mg/m^2 IV, Day 1, mean, n = 3): 52.1 ng·h/mL/mg | Cmax/D (Group 8, 325 mg/m^2 IV, Day 1, mean, n = 4): 2.04 ng/mL/mg | Cmax/D (Group 8, 325 mg/m^2 IV, Day 15, mean, n = 4): 35.5 ng/mL/mg | AUC∞/D [14]: 42.7 ng·h/mL/mg | Cmax/D [14]: 2.01 ng/mL/mg | AUC∞/D (Group 9, 475 mg/m^2 IV, Day 15, mean, n = 4): 39.8 ng·h/mL/mg | Cmax/D (Group 9, 475 mg/m^2 IV, Day 15, mean, n = 5): 3.34 ng/mL/mg | AUC∞/D [15]: 46.5 ng·h/mL/mg | Cmax/D [15]: 2.61 ng/mL/mg | AUC∞/D [16]: 48.6 ng·h/mL/mg | Cmax/D [16]: 3.44 ng/mL/mg | Plasma kinetic behavior (all dose levels, Groups 1-10): semi-logarithmic biphasic kinetic behavior | Cmax (intravenous, 200 mg/m2, Groups 1-7, Day 1, range of group means (200 mg/m^2 outlier apart)): 728 to 1940 ng/mL | Cmax (intravenous, 325 mg/m2, Groups 8-10, Day 15, range of group means (325 mg/m^2 outlier apart)): 2870 to 4170 ng/mL | Tmax (intravenous, Groups 1-7, 50 to 475 mg/m^2, Day 1, range of group means): 0.508 to 1.19 h | AUC(0-inf) (intravenous, Groups 1-7, Day 1, range of group means, read-out: Total exposures (AUC∞)): 6650 to 36200 ng·h/mL | half-life (intravenous, Groups 1-7, Day 1 dose, range of group means, read-out: Apparent elimination half-lives): 37.3 to 81.8 h | Cmax (intravenous, Groups 1-7, Day 8, range of group means): 642 to 1710 ng/mL | AUC(0-inf) (intravenous, Groups 1-7, Day 8, range of group means, read-out: Total exposures (AUC∞)): 9120 to 35400 ng·h/mL | half-life (intravenous, Groups 1-7, Day 8 dose, range of group means, read-out: Apparent elimination half-lives): 42.6 to 96.9 h | Cmax [17]: 1140 to 3080 ng/mL | Tmax [17]: 0.767 to 1.18 h | AUC(0-inf) (intravenous, Groups 8-10, Day 1, range of group means, read-out: Total exposures (AUC∞)): 29100 to 57500 ng·h/mL | half-life (intravenous, Groups 8-10, Day 1 dose, range of group means, read-out: Apparent elimination half-lives): 61.5 to 122 h | AUC(0-inf) (intravenous, Groups 8-10, Day 15, range of group means, read-out: Total exposures (AUC∞)): 32500 to 62200 ng·h/mL | half-life (intravenous, Groups 8-10, Day 15 dose, range of group means, read-out: Apparent elimination half-lives): 59 to 93.6 h | Cmax [18]: 728 ng/mL | Tmax [18]: 0.758 h | Vd [18]: 866 L | clearance [18]: 265 mL/min | AUC(0-inf) (iv, 50 mg/m2, Group 1, 50 mg/m^2 IV, Day 1, mean, n = 4, read-out: AUC∞): 16300 ng·h/mL | half-life (iv, 50 mg/m2, Group 1, 50 mg/m^2 IV, Day 1, mean, n = 4, read-out: T1/2 (converted)): 60.1 h | Cmax [19]: 642 ng/mL | Tmax [19]: 1.01 h | Vd [19]: 752 L | clearance [19]: 275 mL/min | AUC(0-inf) (iv, 50 mg/m2, Group 1, 50 mg/m^2 IV, Day 8, mean, n = 3, read-out: AUC∞): 9120 ng·h/mL | half-life (iv, 50 mg/m2, Group 1, 50 mg/m^2 IV, Day 8, mean, n = 3, read-out: T1/2 (converted)): 42.6 h | Vd (iv, 100 mg/m2, Group 2, 100 mg/m^2 IV, Day 1, mean, n = 3): 1400 L | AUC(0-inf) (iv, 100 mg/m2, Group 2, 100 mg/m^2 IV, Day 1, mean, n = 3, read-out: AUC∞): 6650 ng·h/mL | half-life (iv, 100 mg/m2, Group 2, 100 mg/m^2 IV, Day 1, mean, n = 3, read-out: T1/2 (converted)): 37.3 h | Cmax [20]: 1090 ng/mL | Tmax [20]: 0.508 h | Cmax [21]: 804 ng/mL | Tmax [21]: 0.7 h | Vd [21]: 1850 L | AUC(0-inf) (iv, 100 mg/m2, Group 2, 100 mg/m^2 IV, Day 8, mean, n = 3, read-out: AUC∞): 9160 ng·h/mL | half-life (iv, 100 mg/m2, Group 2, 100 mg/m^2 IV, Day 8, mean, n = 3, read-out: T1/2 (converted)): 60.4 h | Cmax [22]: 1230 ng/mL | Tmax [22]: 0.65 h | Vd [22]: 900 L | clearance [22]: 252 mL/min | AUC(0-inf) (iv, 150 mg/m2, Group 3, 150 mg/m^2 IV, Day 1, mean, n = 4, read-out: AUC∞): 20000 ng·h/mL | half-life (iv, 150 mg/m2, Group 3, 150 mg/m^2 IV, Day 1, mean, n = 4, read-out: T1/2 (converted)): 48.1 h | Cmax (iv, 150 mg/m2, Group 3, 150 mg/m^2 IV, Day 8, mean, n = 4): 1270 ng/mL
